Source: the NIST ThermoML archive (doi:10.1016/j.jct.2013.04.014)
Numbers after ± are expanded uncertainties.

How the values were obtained:
[1] = xn = mol fraction of the nth substance listed; conditions: 298.2 K; for surface tension liquid-gas: Pendant drop shape; for mass density: 101.33 kPa, Liquid, Vibrating tube method
[2] = 298.2 K; for surface tension liquid-gas: Pendant drop shape; for mass density: 101.33 kPa, Liquid, Vibrating tube method

Compound: CCCCn1cc[n+](C)c1C.O=S(=O)([N-]S(=O)(=O)C(F)(F)F)C(F)(F)F + CCCC[n+]1ccn(C)c1.O=S(=O)([N-]S(=O)(=O)C(F)(F)F)C(F)(F)F
- surface tension liquid-gas ([1]; x1 = 0.2193): 33.38 ± 1.1 mN/m
- surface tension liquid-gas ([1]; x1 = 0.3981): 33.59 ± 1.1 mN/m
- surface tension liquid-gas ([1]; x1 = 0.4962): 33.72 ± 1.1 mN/m
- surface tension liquid-gas ([1]; x1 = 0.5995): 33.87 ± 1.1 mN/m
- surface tension liquid-gas ([1]; x1 = 0.7896): 34.16 ± 1.1 mN/m
- surface tension liquid-gas ([1]; x1 = 1): 34.5 ± 1.1 mN/m
- mass density ([1]; x1 = 0.2193): 1433.8 ± 2.1 kg/m3
- mass density ([1]; x1 = 0.3981): 1431.2 ± 2.1 kg/m3
- mass density ([1]; x1 = 0.4962): 1429.6 ± 2.1 kg/m3
- mass density ([1]; x1 = 0.5995): 1428 ± 2.1 kg/m3
- mass density ([1]; x1 = 0.7896): 1424.9 ± 2.1 kg/m3
- mass density ([1]; x1 = 1): 1421.2 ± 2.1 kg/m3

Compound: CCCC[n+]1ccn(C)c1.O=S(=O)([N-]S(=O)(=O)C(F)(F)F)C(F)(F)F + CCC[N+]1(C)CCCCC1.O=S(=O)([N-]S(=O)(=O)C(F)(F)F)C(F)(F)F
- surface tension liquid-gas ([1]; x2 = 0): 33.15 ± 1.1 mN/m
- mass density ([1]; x2 = 0): 1436.9 ± 2.1 kg/m3

Compound: CCC[N+]1(C)CCCCC1.O=S(=O)([N-]S(=O)(=O)C(F)(F)F)C(F)(F)F
- surface tension liquid-gas [2]: 35.17 ± 1.1 mN/m
- mass density [2]: 1411.4 ± 2.1 kg/m3

Compound: CCC[n+]1cccc(C)c1.O=S(=O)([N-]S(=O)(=O)C(F)(F)F)C(F)(F)F + CCCC[n+]1ccn(C)c1.O=S(=O)([N-]S(=O)(=O)C(F)(F)F)C(F)(F)F
- surface tension liquid-gas ([1]; x1 = 0.2093): 33.42 ± 1.1 mN/m
- surface tension liquid-gas ([1]; x1 = 0.3996): 33.73 ± 1.1 mN/m
- surface tension liquid-gas ([1]; x1 = 0.4995): 33.91 ± 1.1 mN/m
- surface tension liquid-gas ([1]; x1 = 0.6047): 34.12 ± 1.1 mN/m
- surface tension liquid-gas ([1]; x1 = 0.8024): 34.55 ± 1.1 mN/m
- surface tension liquid-gas ([1]; x1 = 1): 35.02 ± 1.1 mN/m
- mass density ([1]; x1 = 0.2093): 1440.2 ± 2.1 kg/m3
- mass density ([1]; x1 = 0.3996): 1442.9 ± 2.1 kg/m3
- mass density ([1]; x1 = 0.4995): 1444.2 ± 2.1 kg/m3
- mass density ([1]; x1 = 0.6047): 1445.5 ± 2.1 kg/m3
- mass density ([1]; x1 = 0.8024): 1447.7 ± 2.1 kg/m3
- mass density ([1]; x1 = 1): 1449.7 ± 2.1 kg/m3

Compound: CCCC[n+]1ccn(C)c1.O=S(=O)([N-]S(=O)(=O)C(F)(F)F)C(F)(F)F + CCCCn1cc[n+](C)c1C.O=S(=O)([N-]S(=O)(=O)C(F)(F)F)C(F)(F)F
- surface tension liquid-gas ([1]; x2 = 0): 33.15 ± 1.1 mN/m
- mass density ([1]; x2 = 0): 1436.9 ± 2.1 kg/m3

Compound: CCCCn1cc[n+](C)c1C.O=S(=O)([N-]S(=O)(=O)C(F)(F)F)C(F)(F)F
- surface tension liquid-gas [2]: 34.5 ± 1.1 mN/m
- mass density [2]: 1421.2 ± 2.1 kg/m3

Compound: CCCC[n+]1ccn(C)c1.O=S(=O)([N-]S(=O)(=O)C(F)(F)F)C(F)(F)F + CCC[n+]1cccc(C)c1.O=S(=O)([N-]S(=O)(=O)C(F)(F)F)C(F)(F)F
- surface tension liquid-gas ([1]; x2 = 0): 33.15 ± 1.1 mN/m
- mass density ([1]; x2 = 0): 1436.9 ± 2.1 kg/m3

Compound: CCC[N+]1(C)CCCC1.O=S(=O)([N-]S(=O)(=O)C(F)(F)F)C(F)(F)F + CCCC[n+]1ccn(C)c1.O=S(=O)([N-]S(=O)(=O)C(F)(F)F)C(F)(F)F
- surface tension liquid-gas ([1]; x1 = 0.2094): 33.63 ± 1.1 mN/m
- surface tension liquid-gas ([1]; x1 = 0.3935): 34.04 ± 1.1 mN/m
- surface tension liquid-gas ([1]; x1 = 0.5004): 34.27 ± 1.1 mN/m
- surface tension liquid-gas ([1]; x1 = 0.5943): 34.48 ± 1.1 mN/m
- surface tension liquid-gas ([1]; x1 = 0.7854): 34.89 ± 1.1 mN/m
- surface tension liquid-gas ([1]; x1 = 1): 35.35 ± 1.1 mN/m
- mass density ([1]; x1 = 0.2094): 1436.9 ± 2.1 kg/m3
- mass density ([1]; x1 = 0.3935): 1436.4 ± 2.1 kg/m3
- mass density ([1]; x1 = 0.5004): 1435.9 ± 2.1 kg/m3
- mass density ([1]; x1 = 0.5943): 1435.4 ± 2.1 kg/m3
- mass density ([1]; x1 = 0.7854): 1433.9 ± 2.1 kg/m3
- mass density ([1]; x1 = 1): 1431.7 ± 2.1 kg/m3

Compound: CCCC[n+]1ccn(C)c1.O=S(=O)([N-]S(=O)(=O)C(F)(F)F)C(F)(F)F + CCC[N+]1(C)CCCC1.O=S(=O)([N-]S(=O)(=O)C(F)(F)F)C(F)(F)F
- surface tension liquid-gas ([1]; x2 = 0): 33.15 ± 1.1 mN/m
- mass density ([1]; x2 = 0): 1436.9 ± 2.1 kg/m3

Compound: CCC[N+]1(C)CCCC1.O=S(=O)([N-]S(=O)(=O)C(F)(F)F)C(F)(F)F
- surface tension liquid-gas [2]: 35.35 ± 1.1 mN/m
- mass density [2]: 1431.7 ± 2.1 kg/m3

Compound: CCC[N+]1(C)CCCCC1.O=S(=O)([N-]S(=O)(=O)C(F)(F)F)C(F)(F)F + CCCC[n+]1ccn(C)c1.O=S(=O)([N-]S(=O)(=O)C(F)(F)F)C(F)(F)F
- surface tension liquid-gas ([1]; x1 = 0.2156): 33.53 ± 1.1 mN/m
- surface tension liquid-gas ([1]; x1 = 0.4069): 33.9 ± 1.1 mN/m
- surface tension liquid-gas ([1]; x1 = 0.4988): 34.08 ± 1.1 mN/m
- surface tension liquid-gas ([1]; x1 = 0.5955): 34.28 ± 1.1 mN/m
- surface tension liquid-gas ([1]; x1 = 0.7958): 34.71 ± 1.1 mN/m
- surface tension liquid-gas ([1]; x1 = 1): 35.17 ± 1.1 mN/m
- mass density ([1]; x1 = 0.2156): 1432.9 ± 2.1 kg/m3
- mass density ([1]; x1 = 0.4069): 1428.5 ± 2.1 kg/m3
- mass density ([1]; x1 = 0.4988): 1426.2 ± 2.1 kg/m3
- mass density ([1]; x1 = 0.5955): 1423.7 ± 2.1 kg/m3
- mass density ([1]; x1 = 0.7958): 1417.9 ± 2.1 kg/m3
- mass density ([1]; x1 = 1): 1411.4 ± 2.1 kg/m3

Compound: CCCC[n+]1ccn(C)c1.O=S(=O)([N-]S(=O)(=O)C(F)(F)F)C(F)(F)F
- surface tension liquid-gas [2]: 33.15 ± 1.1 mN/m
- mass density [2]: 1436.9 ± 2.1 kg/m3

Compound: CCC[n+]1cccc(C)c1.O=S(=O)([N-]S(=O)(=O)C(F)(F)F)C(F)(F)F
- surface tension liquid-gas [2]: 35.02 ± 1.1 mN/m
- mass density [2]: 1449.7 ± 2.1 kg/m3
